“Also recorded” adds a separate entry of the source. Square brackets hold non-standard residues; d marks the D form. Primed or numbered codes have the meaning given here. Ends that are not written are not given here. Stearyl = stearyl group covalently linked to the N-terminus; PEG4′ = four-unit PEG spacer; PEG2′ = two-unit PEG spacer; Ahx = NCCCCCC(=O)O; Ava = NCCCCC(=O)O; βAla = NCCC(=O)O
tested on: mice or rat models; assay: Summary of cargo delivery to targeted organ (Table 1); format: in vivo; conditions: cargoes and route (IV, IM, SQ, NB) per peptide as listed in Table 1
Excerpt: Table 1 lists a summary of cell-penetrating peptides that have been proven successful in delivering various cargo molecules to on or more targeted organ (e.g., by intravenous (IV), intramuscular (IM), or subcutaneous (SQ) administration, or intratraccheal instillation or nebulization (NB)) in mice or rat models.

| Substance | Targeted Organ |
| --- | --- |
| ASSLNIA-Ava-KWWERWWREWPRKRR (ASSLNIAKWWERWWREWPRKRR; Ava linker; VARIANT 7, 8 Linked by a 5-amino pentanoic acid) [VEPEP-3C] | Muscle |
| Ac-(PEG)2-βA-KWRSALWRWRLWRVRSWSR-NH2 ({Ac-PEG2′}-[βAla]KWRSALWRWRLWRVRSWSR-NH2) [ADGN-100-PEG2] | Lung:Liver/; also recorded: Spleen |
| Ac-(PEG)2-βALWRALWRLWRSLWRLLWKA-NH2 ({Ac-PEG2′}-[βAla]LWRALWRLWRSLWRLLWKA-NH2) [ADGN-106-PEG2] | Lung/Kidney/; also recorded: Spleen |
| Ac-CKRAVRWWLRWASRWFSRWAWWR [VEPEP-9B] | Heart |
| Ac-GYVS-Ava(CH2)2-ALWRALWRLWRSLWRLLWKA-NH2 [ADGN-106 hydro-4] | Brain/Kidney |
| Ac-SYTSSTM-ava-KWWERWWREWPRKRR (SYTSSTMKWWERWWREWPRKRR; N-acetyl, Ava linker; VARIANT 1 N-terminal acetylation; VARIANT 7, 8 Linked by a 5-amino pentanoic acid) [VEPEP-3E] | Brain |
| Ac-YIGSR-(PEG)2-βA-KWRSALWRWRLWRVRSWSR-NH2 (Ac-YIGSR[PEG2′][βAla]KWRSALWRWRLWRVRSWSR-NH2) [ADGN-100-HYPEG2] | Lung |
| Ac-YIGSR-(PEG)4-βA-KWRSALWRWRLWRVRSWSR-NH2 (Ac-YIGSR[PEG4′][βAla]KWRSALWRWRLWRVRSWSR-NH2) [ADGN-100-HYPEG4] | Lung |
| Ac-YIGSR-A-KWRSALWRWRLWRVRSWSR-NH2 (Ac-YIGSR[βAla]KWRSALWRWRLWRVRSWSR-NH2; SMILES CC[C@H](C)[C@H](NC(=O)[C@H](Cc1ccc(O)cc1)NC(C)=O)C(=O)NCC(=O)N[C@@H](CO)C(=O)N[C@@H](CCCNC(=N)N)C(=O)NCCC(=O)N[C@@H](CCCCN)C(=O)N[C@@H](Cc1c[nH]c2ccccc12)C(=O)N[C@@H](CCCNC(=N)N)C(=O)N[C@@H](CO)C(=O)N[C@@H](C)C(=O)N[C@@H](CC(C)C)C(=O)N[C@@H](Cc1c[nH]c2ccccc12)C(=O)N[C@@H](CCCNC(=N)N)C(=O)N[C@@H](Cc1c[nH]c2ccccc12)C(=O)N[C@@H](CCCNC(=N)N)C(=O)N[C@@H](CC(C)C)C(=O)N[C@@H](Cc1c[nH]c2ccccc12)C(=O)N[C@@H](CCCNC(=N)N)C(=O)N[C@H](C(=O)N[C@@H](CCCNC(=N)N)C(=O)N[C@@H](CO)C(=O)N[C@@H](Cc1c[nH]c2ccccc12)C(=O)N[C@@H](CO)C(=O)N[C@@H](CCCNC(=N)N)C(N)=O)C(C)C) [ADGN-100-Hydro] | Lung/Kidney |
| Ac-YIGSR-Ahx-ALWRALWRLWRSLWRLLWKA-NH2 (Ac-YIGSR[Ahx]ALWRALWRLWRSLWRLLWKA-NH2; SMILES CC[C@H](C)[C@H](NC(=O)[C@H](Cc1ccc(O)cc1)NC(C)=O)C(=O)NCC(=O)N[C@@H](CO)C(=O)N[C@@H](CCCNC(=N)N)C(=O)NCCCCCC(=O)N[C@@H](C)C(=O)N[C@@H](CC(C)C)C(=O)N[C@@H](Cc1c[nH]c2ccccc12)C(=O)N[C@@H](CCCNC(=N)N)C(=O)N[C@@H](C)C(=O)N[C@@H](CC(C)C)C(=O)N[C@@H](Cc1c[nH]c2ccccc12)C(=O)N[C@@H](CCCNC(=N)N)C(=O)N[C@@H](CC(C)C)C(=O)N[C@@H](Cc1c[nH]c2ccccc12)C(=O)N[C@@H](CCCNC(=N)N)C(=O)N[C@@H](CO)C(=O)N[C@@H](CC(C)C)C(=O)N[C@@H](Cc1c[nH]c2ccccc12)C(=O)N[C@@H](CCCNC(=N)N)C(=O)N[C@@H](CC(C)C)C(=O)N[C@@H](CC(C)C)C(=O)N[C@@H](Cc1c[nH]c2ccccc12)C(=O)N[C@@H](CCCCN)C(=O)N[C@@H](C)C(N)=O) [ADGN-106 hydro-7] | Lung/Tumor |
| KSYDTY-ava-ALRWLRWASRWFSRWAWR (KSYDTY[Ava]ALRWLRWASRWFSRWAWR) [VEPEP-9A] | Brain/Lymphnode |
| KSYDTYAAETRRWASRWFSRWAWWR (not fully specified (N-terminus, C-terminus)) [VEPEP-9D] | Brain/Lymphnode |
| LSSRLDA-Ava-KWWERWWREWPRKRR (LSSRLDAKWWERWWREWPRKRR; Ava linker; VARIANT 7, 8 Linked by a 5-amino pentanoic acid) [VEPEP-3D] | Heart/Muscle |
| Stearyl-βA-ALWRALWRLWRSLWRLLWKA-NH2 (Stearyl-[βAla]ALWRALWRLWRSLWRLLWKA-NH2) [ADGN-106 Stearyl] | Liver/Spleen |
| beta-AKWFERWFREWPRKRR (N-terminal beta-alanine; VARIANT 1 beta-A) [VEPEP-3a] | Kidney/Pancreas |
| beta-ALRWWLRWASRWFSRWAWWR (N-terminal beta-alanine; VARIANT 1 beta-A) [VEPEP-9] | Brain/Liver/; also recorded: Lung/Kidney/ |
| beta-RWWLRWASRWFSRWAWR (not fully specified (residue 1, N-terminus); printed as beta-RWWLRWASRWFSRWAWR) [VEPEP-9C] | Liver/Lung/; also recorded: Kidney/Brain |

Reference: patent publication US12357695B2, “Peptides and nanoparticles for intracellular delivery of molecules” (AADIGEN, LLC, priority 2019, dated 2025)
